{
  "source": "patent US6329526A",
  "about": "“Cycloalkyl substituted imidazoles” (SmithKline Beecham Corporation, priority 1998, dated 2001)",
  "key": {"human PGHS-2": {"tested_on": "human PGHS-2", "assay": "PGHS-2 protein expression in LPS stimulated human monocytes", "format": "cell-based", "description": "The following assay describes a method for determining the inhibitory effects of compounds of Formula (I) on human PGHS-2 protein expression in LPS stimulated human monocytes.\nMethod: Human peripheral blood monocytes were isolated from buffy coats by centrifugation through Ficoll and Percoll gradients. Cells were seeded at 2×10^6 /well in 24 well plates and allowed to adhere for 1 hour in RPMI supplemented with 1% human AB serum, 20 mM L-glutamine, Penicillin-Streptomycin and 10 mM HEPES. Compounds were added at various concentrations and incubated at 37° C. for 10 minutes. LPS was added at 50 ng/well (to induce enzyme expression) and incubated overnight at 37° C. The supernatant was removed and cells washed once in cold PBS. The cells were lysed in 100 μl of cold lysis buffer(50 mM Tris/HCl pH 7.5, 150 mM NaCl, 1% NP40, 0.5% sodium deoxycholate, 0.1% SDS, 300 ug/ml DNAse, 0.1% TRITON X-100, 1 mM PMSF, 1 mM leupeptin, 1 mM pepstatin). The lysate was centrifuged (10,000× g for 10 min. at 4° C.) to remove debris and the soluble fraction was subjected to SDS PAGE. analysis (12% gel). Protein separated on the gel were transferred onto nitrocellulose membrane by electrophoretic means for 2 hours at 60 volts. The membrane was pretreated for one hour in PBS/0.1% Tween 20 with 5% non-fat dry milk. After washing 3 times in PBS/Tween buffer, the membrane was incubated with a 1:2000 dilution of a monospecific antiserum to PGHS-2 or a 1:1000 dilution of an antiserum to PGHs-1 in PBS/Tween with 1% BSA for one hour with continuous shaking. The membrane was washed 3× in PBS/Tween and then incubated with a 1:3000 dilution of horseradish peroxidase conjugated donkey antiserum to rabbit Ig (Amersham) in PBS/Tween with 1% BSA for one hour with continuous shaking. The membrane was then washed 3× in PBS/Tween and the ECL immunodetection system (Amersham) was used to detect the level of expression of prostaglandin endoperoxide synthases-2."}, "Interleukin-1 (IL-1)": {"tested_on": "Interleukin-1 (IL-1)", "assay": "IL-1 production by LPS-stimulated human peripheral blood monocytes (IL-1 bioassay or ELISA)", "format": "cell-based", "details": "LPS 50 ng/ml, 24 hours", "description": "The cytokine-inhibiting effects of compounds of the present invention were determined by the following in vitro assays: Interleukin -1 (IL-1) Human peripheral blood monocytes are isolated and purified from either fresh blood preparations from volunteer donors, or from blood bank buffy coats, according to the procedure of Colotta et al, J Immunol, 132, 936 (1984). These monocytes (1×10^6) are plated in 24-well plates at a concentration of 1-2 million/ml per well. The cells are allowed to adhere for 2 hours, after which time non-adherent cells are removed by gentle washing. Test compounds are then added to the cells for about 1 hour before the addition of lipopolysaccharide (50 ng/ml), and the cultures are incubated at 37° C. for an additional 24 hours. At the end of this period, culture supernatants are removed and clarified of cells and all debris. Culture supernatants are then immediately assayed for IL-1 biological activity, either by the method of Simon et al., J. Immunol. Methods, 84, 85, (1985) (based on ability of IL-1 to stimulate a Interleukin 2 producing cell line (EL-4) to secrete IL-2, in concert with A23187 ionophore) or the method of Lee et al., J. ImmunoTherapy, 6 (1), 1-12 (1990) (ELISA assay)."}, "[1]": {"tested_on": "Tumour Necrosis Factor (TNF)", "assay": "TNF production by LPS-stimulated human peripheral blood monocytes (radioimmunoassay or ELISA)", "format": "cell-based", "details": "LPS 100 ng/ml, 16-18 hours"}, "Interleukin-8 (IL-8)": {"tested_on": "Interleukin-8 (IL-8)", "assay": "IL-8 production by primary human umbilical cord endothelial cells (HUVEC), ELISA", "format": "cell-based", "details": "test compound between 1 and 10 μM", "description": "Primary human umbilical cord endothelial cells (HUVEC) (Cell Systems, […], Wash.) are maintained in culture medium supplemented with 15% fetal bovine serum and 1% CS-HBGF consisting of aFGF and heparin. The cells are then diluted 20-fold before being plated (250 μl) into gelating coated 96-well plates. Prior to use, culture medium are replaced with fresh medium (200 μl). Buffer or test compound (25 μl, at concentrations between 1 and 10 μM) is then added to each well in quadruplicate wells and the plates incubated for 6h in a humidified incubator at 37° C. in an atmosphere of 5% CO2. At the end of the incubation period, supernatant is removed and assayed for IL-8 concentration using an IL-8 ELISA kit obtained from R&D Systems (Minneapolis, Minn.). All data is presented as mean value (ng/ml) of multiple samples based on the standard curve. IC50's where appropriate are generated by non-linear regression analysis."}, "CSBP2": {"target": "T1, CSBP2 (Homo sapiens, UniProt Q16539)", "T1 construct": "made in house; host or cells: yeast", "T1 sequence (Q16539 whole entry)": "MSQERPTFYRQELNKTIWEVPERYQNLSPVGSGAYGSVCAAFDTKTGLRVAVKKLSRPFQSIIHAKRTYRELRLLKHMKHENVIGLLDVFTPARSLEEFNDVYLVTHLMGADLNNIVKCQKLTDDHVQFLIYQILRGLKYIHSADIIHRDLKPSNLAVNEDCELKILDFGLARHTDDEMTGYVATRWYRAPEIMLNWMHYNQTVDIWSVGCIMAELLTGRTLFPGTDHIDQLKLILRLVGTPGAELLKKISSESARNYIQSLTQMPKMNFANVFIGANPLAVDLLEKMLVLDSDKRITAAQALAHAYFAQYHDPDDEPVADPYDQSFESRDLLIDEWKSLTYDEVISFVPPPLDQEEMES", "assay": "CSBP Kinase Assay (32P transfer to EGFR-derived peptide T669)", "format": "biochemical", "description": "Compounds (5 ul from [6X] stock^(2)) are pre-incubated with the enzyme and peptide for 20 min on ice prior to starting the reactions with 32P/MgATP. Reactions are incubated at 30° C. for 10 min and stopped by adding 10 ul of 0.3 M phosphoric acid. 32P-labeled peptide is separated on phosphocellulose (Wattman, p81) filters by spotting 30 ul reaction mixture. Filters are washed 3 times with 75 mM phosphoric acid followed by 2 washes with H2 O, and counted for 32P."}},
  "data": [
    {"smiles": "C[S+]([O-])c1ccc(-c2nc3n(c2-c2ccncc2)CCC3)cc1", "note": "(stereo not drawn) [2-(4-Methylsulfinylphenyl)-3-(4-pyridyl)-6,7-dihydro-(5H)-pyrrolo[1,2-a]imidazole]", "values": [
      {"measurement": "inhibition of LPS induced PGHS-2 protein expression", "setting": "human PGHS-2; up to 10 uM", "value": "inactive"}
    ]},
    {"smiles": "C[S+]([O-])c1ccc(-c2nc(-c3ccc(F)cc3)c(-c3ccncc3)[nH]2)cc1", "note": "(stereo not drawn) [4-(4-Fluorophenyl)-2-(4-methylsulfinylphenyl)-5-(4-pyridyl)imidazole]", "values": [
      {"measurement": "inhibition of LPS induced PGHS-2 protein expression", "setting": "human PGHS-2; LPS stimulated human monocytes, rank order potency similar to that for inhibiting cytokine production", "value": "active"}
    ]},
    {"smiles": "COc1nccc(-c2c(-c3ccc(F)cc3)ncn2[C@H]2CC[C@H](O)CC2)n1", "note": "[Example 2, trans-1-(4-Hydroxycyclohexyl)-4-(4-fluorophenyl)-5-[(2-methoxy)pyrimidin-4-yl]imidazole]", "values": [
      {"measurement": "inhibitory activity against IL-1", "setting": "Interleukin-1 (IL-1)", "value": "positive inhibitory activity"},
      {"measurement": "inhibitory activity against TNF", "setting": "[1]", "value": "positive inhibitory activity"},
      {"measurement": "inhibitory activity against IL-8", "setting": "Interleukin-8 (IL-8)", "value": "positive inhibitory activity"}
    ]},
    {"smiles": "CCOc1nccc(-c2c(-c3ccc(F)cc3)ncn2[C@H]2CC[C@H](O)CC2)n1", "note": "[Example 9, trans-1-(4-Hydroxycyclohexyl)-4-(4-fluorophenyl)-5-[(2-ethoxy)pyrimidine-4-yl]imidazole]", "values": [
      {"measurement": "IC50", "setting": "CSBP2", "value": "< 50", "unit": "µM"}
    ]},
    {"smiles": "CC(Cc1ccc(O)c(O)c1)C(C)Cc1ccc(O)c(O)c1", "note": "(stereo not drawn) [NDGA]", "values": [
      {"measurement": "inhibition of LPS induced PGHS-2 protein expression", "setting": "human PGHS-2; up to 10 uM", "value": "inactive"}
    ]},
    {"smiles": "O=C1CCN(c2ccccc2)N1", "note": "[phenidone]", "values": [
      {"measurement": "inhibition of LPS induced PGHS-2 protein expression", "setting": "human PGHS-2; up to 10 uM", "value": "inactive"}
    ]},
    {"smiles": "COc1ccc(C2CNC(=O)C2)cc1OC1CCCC1", "note": "(stereo not drawn) [rolipram]", "values": [
      {"measurement": "inhibition of LPS induced PGHS-2 protein expression", "setting": "human PGHS-2; up to 10 uM", "value": "inactive"}
    ]}
  ]
}
